ED50 and LD50 data for ten compounds are collected here from US4333942A, “Anti-depressant and analgesic 4-phenoxypiperidines” (BYK Gulden Lomberg Chemische Fabrik GmbH, priority 1979, dated 1982).

For orientation: LD50 means the dose expected to kill half of the subjects tested.

One data set deals with Reserpine ptosis. The data set is described as follows: Antiptotic action (Reserpine antagonism). Format: in vivo, female albino mice NMRI. The note with it: Mus musculus. The procedure:
(§1) All the experiments are carried out on female albino mice NMRI of 20 to 30 g body weight. 5 to 20 animals are employed per dose and the dose/response relationship are determined.
Antiptotic action (Reserpine antagonism)
Subcutaneous administration of 2 mg/kg of reserpine to albino mice causes ptosis in the course of several hours [Reserpine Ptosis, Domenjoz and Theobald (1959), Arch, Int. Pharmacodyn. 120,450]. The test substances are administered to the animals orally in various doses 3 hours before the administration of reserpine. The intensity of ptosis is graded by a rating scale 3-2-1-0 (complete, moderate, slight, no ptosis) in the 2nd, 3rd and 4th hour after administration of the reserpine (that is 5, 6 and 7 hours after administration of the substance). The substances tested antagonize the ptosis according to the dose. The ED50 of the antagonistic action is evaluated in comparison to the daily reserpine control.

The next data set deals with thermal pain. The experiment in a line: Tail flick test (analgesia). The data set is classed as in vivo, female albino mice NMRI. The settings on record: Mus musculus; oral; dose which prolongs the reaction time by 50%; mice; read-out: Analgesic action, tail flick test ED50. The procedure:
as §1
(a) Tail flick test: Albino mice are exposed to thermal pain, from a focused heat ray, at the tail root, and the time which elapses before the tail is drawn away is recorded. This time is usually in the range of from 4 to 5 seconds. The substances tested cause a delayed reaction to the thermal pain, that is a reduced thermal pain reaction. The dose which prolongs the reaction time by 50% is determined. Literature: D'Amour, F. E., and Smith, D. L., (1941) J. Pharmacol. Exp. Ther. 72, 74.
Background: Hot-plate and tail-flick tests time the reaction to a heat stimulus.

Data set [1] in a line: Determination of the lethal effect (acute toxicity). More on the design: species or system female albino mice NMRI. The settings on record: mouse, in vivo; oral; mice; observation time 7 days. The procedure:
as §1
The mice were given food (Altromin®) and water ad libitum. The substances to be tested were administered orally as solutions of varying concentration in a volume of from 10 to 20 ml/kg using a stomach tube; 5 animals per dose were kept in Macrolon cages, type II. The observation time was 7 days. […] Literature: Litchfield and Wilkoxon ([…]) J. Pharm. Exp. Therap. 96/2, 99.

Another data set relates to acetic acid writhing. The data set is described as follows: Acetic acid writhing test (analgesia). The data set is classed as in vivo, female albino mice NMRI. The note with it: Mus musculus, read-out: Analgesic action, acetic acid writhing test ED50. On the procedure: as §1
(b) Writhing test (acetic acid writhing): intraperitoneal injection of 0.2 ml/20 g of body weight of mouse of a 0.75% strength acetic acid solution induces in albino mice a typical syndrome proceeding over the body with dorsal flection, called "writhing". These "writhes" (occurring in the course of the first half hour after administration) are counted over a period of 5 to 20 minutes after administration of acetic acid. The substances tested (administered 30 minutes before the acetic acid injection) cause a reduction in the number of writhing syndromes. The dose which reduces the number thereof by 50%, relative to the daily control, is determined. Literature: Koster, Anderson, de Beer (1959) Fed.Proc. 18, 412.
For orientation: In writhing tests, fewer writhes than in controls are read as antinociception.

Setting [2] is: po, 5 h, read-out: Antiptotic action, Reserpine antagonism ED50, 5 hours after administration.
Where [3] appears, read: po, 6 h, read-out: Antiptotic action, Reserpine antagonism ED50, 6 hours after administration.
[4] abbreviates: po, 7 h, read-out: Antiptotic action, Reserpine antagonism ED50, 7 hours after administration.
Where [5] appears, read: read-out: Antiptotic action, Reserpine antagonism ED50, oral, 5 hours after administration, reserpine 2 mg/kg s.c., mice.
The mark [6] stands for this setting: oral, 6 hours after administration, reserpine 2 mg/kg s.c., mice, read-out: Antiptotic action, Reserpine antagonism ED50, 6 hours after administration.
[7] abbreviates: oral, 7 hours after administration, reserpine 2 mg/kg s.c., mice, read-out: Antiptotic action, Reserpine antagonism ED50, 7 hours after administration.
The mark [8] stands for this setting: oral, 30 minutes before acetic acid, dose which reduces writhes by 50%, mice.

Like-named read-outs stand apart in the source and are kept apart here.

Take `CN1CCC(Oc2ccccc2)(c2ccccc2)CC1` [compound 2]: the ED50 in the data set with Reserpine ptosis (setting [2]) was found to be 2.1 mg/kg; in the data set on Reserpine ptosis (setting [3]) it was 2.7 mg/kg; with Reserpine ptosis (setting [4]), 4 mg/kg; in the data set with thermal pain, 35 mg/kg. The same compound came in with an LD50 at 168 h in data set [1] of 220 mg/kg.

`CN1CCC(Cc2ccccc2)(Oc2ccc(N)cc2)CC1` [compound 4]: the ED50 with Reserpine ptosis (setting [5]) turned out to be 9.5 mg/kg; in the data set with Reserpine ptosis (setting [6]), 24 mg/kg; with Reserpine ptosis (setting [7]) it was 50 mg/kg; in the data set on thermal pain it was 2 mg/kg; in the data set on acetic acid writhing (setting [8]), 27 mg/kg. In data set [1], this compound gave an LD50 at 168 h of 180 mg/kg.

Take `CN1CCC(Oc2ccc([N+](=O)[O-])cc2)(c2ccccc2)CC1` [compound 3]: the ED50 with Reserpine ptosis (setting [2]) is 0.7 mg/kg; with Reserpine ptosis (setting [3]), 2 mg/kg; in the data set with Reserpine ptosis (setting [4]), 5.8 mg/kg; with thermal pain, 50 mg/kg. In data set [1], this compound had an LD50 at 168 h of 140 mg/kg.

As to `CN1CCC(Cc2ccccc2)(Oc2ccccc2)CC1` [compound 7], the figures for the ED50 in the data set with thermal pain and with acetic acid writhing (setting [8]) were 55 mg/kg and 27 mg/kg, respectively. In data set [1], this compound gave an LD50 at 168 h of 300 mg/kg.

On to `CN1CCC(Oc2ccc(N)cc2)(c2ccccc2)CC1` [compound 5], for which the ED50 came to 0.7 mg/kg in the data set with Reserpine ptosis (setting [2]); 3 mg/kg in the data set on Reserpine ptosis (setting [3]); 10 mg/kg with Reserpine ptosis (setting [4]); 12 mg/kg with thermal pain; 7 mg/kg in the data set on acetic acid writhing (po). Further, the LD50 at 168 h in data set [1] stood at 160 mg/kg.

On to `c1ccc(OC2(c3ccccc3)CCNCC2)cc1` [compound 8], for which the ED50 in the data set on Reserpine ptosis (setting [5]) was around 25 mg/kg; in the data set on Reserpine ptosis (setting [6]), above 50 mg/kg; in the data set with Reserpine ptosis (setting [7]), above 50 mg/kg; in the data set on thermal pain, 25 mg/kg; in the data set on acetic acid writhing (setting [8]), 50 mg/kg. The same compound came in with a median lethal dose (LD50) at 168 h in data set [1] above 200 mg/kg.

Regarding `CN1CCC(Cc2ccccc2)(Oc2ccc([N+](=O)[O-])cc2)CC1` [compound 6], the values for the ED50 with thermal pain and with acetic acid writhing (setting [8]) were above 75 mg/kg and 35 mg/kg, respectively. The compound also gave an LD50 at 168 h in data set [1] of 290 mg/kg.

Regarding `CC(=O)Nc1ccc(OC2(c3ccccc3)CCN(C)CC2)cc1` [compound 10], the ED50 is below 10 mg/kg in the data set on Reserpine ptosis (setting [2]); below 10 mg/kg in the data set on Reserpine ptosis (setting [3]); below 10 mg/kg in the data set with Reserpine ptosis (setting [4]); 12.5 mg/kg in the data set with thermal pain; 10 mg/kg with acetic acid writhing (po). In addition, the LD50 at 168 h in data set [1] lay in the range of 100 to 200 mg/kg.

`CN(C)CCCN1c2ccccc2CCc2ccccc21` [Serial No. 1, Imipramine, reference compound]: the ED50 with Reserpine ptosis (setting [5]) was 18 mg/kg; in the data set with Reserpine ptosis (setting [6]), 50 mg/kg; in the data set with Reserpine ptosis (setting [7]), 100 mg/kg; with thermal pain, above 50 mg/kg; with acetic acid writhing (setting [8]), above 100 mg/kg.

Turning to `CC(C)(C)N1CCC(Oc2ccc([N+](=O)[O-])cc2)(c2ccccc2)CC1` [Serial No. 9, 1-(tert.-Butyl)-4-(4-nitrophenoxy)-4-phenylpiperidine], in the data set with acetic acid writhing (po), the ED50 was 10 mg/kg.
